Publication PMC11314295, “Discovery of Curcuminoids as Pancreatic Lipase Inhibitors from Medicine-and-Food Homology Plants” (Nutrients, 2024)
In brackets after ≈: the same amount, converted by molar mass. Entries after “also recorded” stand apart in the source; their conditions may differ.

Tests used:
[1] = target: T1, pancreatic lipase (Sus scrofa, UniProt P00591); test: Enzyme inhibition kinetics (Lineweaver-Burk analysis); format: biochemical, porcine; details: for inhibition type: Lineweaver-Burk plots, Vmax unchanged; for reversibility of inhibition: plots of v versus enzyme concentration
T1 sequence (P00591 1-450): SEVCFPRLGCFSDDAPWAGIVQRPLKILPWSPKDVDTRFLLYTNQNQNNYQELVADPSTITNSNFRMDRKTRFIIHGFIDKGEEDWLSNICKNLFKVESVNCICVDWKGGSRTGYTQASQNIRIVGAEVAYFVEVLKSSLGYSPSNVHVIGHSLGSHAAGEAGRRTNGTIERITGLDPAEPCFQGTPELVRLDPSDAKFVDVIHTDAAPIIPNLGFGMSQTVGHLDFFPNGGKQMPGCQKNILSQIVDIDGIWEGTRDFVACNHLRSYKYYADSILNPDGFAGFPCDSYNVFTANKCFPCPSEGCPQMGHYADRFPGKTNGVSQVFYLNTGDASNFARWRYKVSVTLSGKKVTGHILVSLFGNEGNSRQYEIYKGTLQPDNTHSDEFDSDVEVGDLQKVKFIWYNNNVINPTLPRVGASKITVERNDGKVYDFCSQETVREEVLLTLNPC

[2] = target: T1, pancreatic lipase; test: Circular dichroism measurement of secondary structure; set-up: species or system porcine; details: for β-Turn (%) of pancreatic lipase / α-Helix (%) of pancreatic lipase / β-Sheet (%) of pancreatic lipase / Random Coil (%) of pancreatic lipase: lipase:compound molar ratio 1:1, 37 °C, 5 min; for β-Turn (%) of pancreatic lipase: lipase alone 14.8; for α-Helix (%) of pancreatic lipase: lipase alone 17.7; for β-Sheet (%) of pancreatic lipase: lipase alone 25.4; for decrease of β-sheet of pancreatic lipase / increase of α-helix content of pancreatic lipase: relative to pancreatic lipase alone; for Random Coil (%) of pancreatic lipase: lipase alone 42.1
[3] = target: T1, pancreatic lipase; test: Fluorescence spectrometry (tryptophan fluorescence quenching, Stern-Volmer); details: for ΔS (entropy change) / ΔH (enthalpy): Van't Hoff, 298 and 310 K
[4] = target: pancreatic lipase; details: cited from earlier work
[5] = target: T1, pancreatic lipase; test: Affinity screening by ultrafiltration coupled with HPLC; format: binding, porcine; details: from change of HPLC peak area at 425 nm, turmeric extract, versus heat-inactivated enzyme
[6] = target: T2, pancreatic lipase from porcine pancreas type II (Sus scrofa, UniProt P00591); test: Pancreatic lipase inhibition in vitro (p-nitrophenyl butyrate hydrolysis, absorbance 410 nm); format: biochemical; details: curcuminoid chemical standards
T2 sequence (P00591 1-450): T1 sequence (P00591 1-450)

| SMILES | inhibition type [1] | reversibility of inhibition [1] | β-Turn (%) of pancreatic lipase [2] | α-Helix (%) of pancreatic lipase [2] | β-Sheet (%) of pancreatic lipase [2] | decrease of β-sheet of pancreatic lipase [2] | Ka (binding constant), bound stated [3] | binding sites [3] | Kq (fluorescence-quenching rate constant) ([3]; 298 K) | n (binding sites) ([3]; 298 K) | ΔG (free energy) ([3]; 298 K) | ΔG (free energy) ([3]; 310 K) | ΔS (entropy change) [3] | binding rate to pancreatic lipase [5] | Random Coil (%) of pancreatic lipase [2] | increase of α-helix content of pancreatic lipase [2] | Kq, compared with maximum dynamic quenching constant [3] | Kq (fluorescence-quenching rate constant) ([3]; 310 K) | n (binding sites) ([3]; 310 K) | ΔH (enthalpy) [3] | further results |
| --- | --- | --- | --- | --- | --- | --- | --- | --- | --- | --- | --- | --- | --- | --- | --- | --- | --- | --- | --- | --- | --- |
| O=C(/C=C/c1ccc(O)cc1)CC(=O)/C=C/c1ccc(O)cc1 [bisdemethoxycurcumin, Bisdemethoxycurcumin] | competitive inhibitors; also recorded: reversible competitive inhibition | reversible | 15.9% | 21.3% | 21.7% | 14.57% | > 10000 L/mol | ~1 | 1.6 ± 0.07 ×10^12 L·mol^−1·s^−1 | 1.13 ± 0.03 | -5.476 ± 0.0574 kcal/mol | -5.98 ± 0.0359 kcal/mol | −14.33 ± 0.14 J·mol^−1·K |  |  |  |  |  |  |  |  |
| C=C(C)[C@@H]1CC[C@]2(C(=O)O[C@@H]3O[C@H](CO[C@@H]4O[C@H](CO)[C@@H](O[C@@H]5O[C@@H](C)[C@H](O)[C@@H](O)[C@H]5O)[C@H](O)[C@H]4O)[C@@H](O)[C@H](O)[C@H]3O)CC[C@]3(C)[C@H](C[C@H]4OC(=O)C[C@@H](O)[C@]5(C)[C@@H]4[C@@]3(C)CC[C@H]5C(=C)C)[C@@H]12 [chiisanoside] |  |  |  |  |  |  |  |  |  |  |  |  |  |  |  |  |  |  |  |  | IC50 [4]: 740 µg/mL (≈ 775 µM) |
| COc1cc(/C=C/C(=O)CC(=O)/C=C/c2ccc(O)c(OC)c2)ccc1O [curcumin, Curcumin] | competitive inhibitors; also recorded: reversible competitive inhibition | reversible | 15.7% | 34.3% | 15.3% | 39.76% | > 10000 L/mol | ~1 | 1.94 ± 0.10 ×10^12 L·mol^−1·s^−1 | 1.14 ± 0.02 | -5.762 ± 0.0311 kcal/mol | -6.319 ± 0.0598 kcal/mol | −23.99 ± 0.10 J·mol^−1·K | 54.69% | 34.7% | 93.78% | > 2e+10 M⁻¹ s⁻¹ | 4.28 ± 0.25 ×10^12 L·mol^−1·s^−1 | 1.2 ± 0.02 | -8.098 ± 0.0717 kcal/mol |  |
| COc1cc(/C=C/C(O)=C/C(=O)/C=C/c2ccc(O)cc2)ccc1O [demethoxycurcumin, Demethoxycurcumin] | competitive inhibitors; also recorded: reversible competitive inhibition | reversible | 16.5% | 26.4% | 16.9% | 33.46% | > 10000 L/mol | ~1 | 1.64 ± 0.13 ×10^12 L·mol^−1·s^−1 | 1.12 ± 0.04 | -5.564 ± 0.0335 kcal/mol | -6.09 ± 0.0502 kcal/mol | −18.82 ± 0.09 J·mol^−1·K | 49.33% | 40.2% | 49.15% | > 2e+10 M⁻¹ s⁻¹ | 3.61 ± 0.24 ×10^12 L·mol^−1·s^−1 | 1.40 ± 0.01 | -7.483 ± 0.0526 kcal/mol | IC50 [6]: 3.31 mM; Ki ([1]; pancreatic lipase 5 mg/mL, p-nitrophenyl butyrate substrate, read-out: Ki (inhibition constant)): 0.84 ± 0.04 mM; maximum emission peak of pancreatic lipase after addition (blueshift from 350 nm) ([3]; excitation 280 nm): 342 nm |
